Patent publication US20150352108A1, “AMINO-PYRIMIDINE COMPOUNDS AS INHIBITORS OF TBK1 AND/OR IKK EPSILON” (Alzheimer's Institute of America, priority 2009, published 2015)
Like-named read-outs stand apart in the source and are kept apart here.

How the values were obtained:
IKKε = molecular target: T1, IKKε (Homo sapiens, UniProt Q14164); test: In-vitro IKKε kinase assay ([γ33]ATP filter-plate); assay type: biochemical
T1 construct: His-tag; made in house; host or cells: Sf9 insect cells
T1 sequence (Q14164 1-716): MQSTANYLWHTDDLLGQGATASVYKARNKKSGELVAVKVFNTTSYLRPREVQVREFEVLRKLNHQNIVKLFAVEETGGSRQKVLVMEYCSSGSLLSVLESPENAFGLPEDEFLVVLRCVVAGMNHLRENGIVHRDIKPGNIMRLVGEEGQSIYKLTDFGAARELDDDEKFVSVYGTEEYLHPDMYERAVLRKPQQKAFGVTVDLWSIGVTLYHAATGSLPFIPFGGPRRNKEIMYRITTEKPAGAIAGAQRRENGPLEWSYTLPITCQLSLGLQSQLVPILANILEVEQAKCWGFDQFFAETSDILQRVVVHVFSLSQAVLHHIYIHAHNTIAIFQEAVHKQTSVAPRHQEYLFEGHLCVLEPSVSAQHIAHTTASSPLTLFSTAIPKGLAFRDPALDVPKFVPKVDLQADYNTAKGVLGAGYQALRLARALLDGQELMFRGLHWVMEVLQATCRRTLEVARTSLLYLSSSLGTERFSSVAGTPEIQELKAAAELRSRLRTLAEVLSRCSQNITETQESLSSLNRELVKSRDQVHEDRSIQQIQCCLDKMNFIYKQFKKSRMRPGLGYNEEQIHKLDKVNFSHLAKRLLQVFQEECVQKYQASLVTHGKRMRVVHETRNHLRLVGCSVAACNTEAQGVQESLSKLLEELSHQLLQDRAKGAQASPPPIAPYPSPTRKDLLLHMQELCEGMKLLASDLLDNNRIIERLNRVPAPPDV
Procedure, shortened: (§1)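 Phosphorylation of casein or myelin basic protein was counted by P-81 filter capture after 30-45 min reactions stopped with phosphoric acid, with counts normalized to DMSO after background subtraction. ATP was twice Km: 60 μM for TBK1 and 32 μM for IKKε, plus [γ33]ATP. Sf9-expressed His-tag enzymes were used at normal/sensitized levels of 0.1/0.02 μg/ml (TBK1) and 0.1/0.015 μg/ml (IKKε).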

TBK1 = molecular target: T2, TBK1 (Homo sapiens, UniProt Q9UHD2); test: In-vitro TBK1 kinase assay ([γ33]ATP filter-plate); assay type: biochemical
T2 construct: His-tag; made in house; host or cells: Sf9 insect cells
T2 sequence (Q9UHD2 1-729): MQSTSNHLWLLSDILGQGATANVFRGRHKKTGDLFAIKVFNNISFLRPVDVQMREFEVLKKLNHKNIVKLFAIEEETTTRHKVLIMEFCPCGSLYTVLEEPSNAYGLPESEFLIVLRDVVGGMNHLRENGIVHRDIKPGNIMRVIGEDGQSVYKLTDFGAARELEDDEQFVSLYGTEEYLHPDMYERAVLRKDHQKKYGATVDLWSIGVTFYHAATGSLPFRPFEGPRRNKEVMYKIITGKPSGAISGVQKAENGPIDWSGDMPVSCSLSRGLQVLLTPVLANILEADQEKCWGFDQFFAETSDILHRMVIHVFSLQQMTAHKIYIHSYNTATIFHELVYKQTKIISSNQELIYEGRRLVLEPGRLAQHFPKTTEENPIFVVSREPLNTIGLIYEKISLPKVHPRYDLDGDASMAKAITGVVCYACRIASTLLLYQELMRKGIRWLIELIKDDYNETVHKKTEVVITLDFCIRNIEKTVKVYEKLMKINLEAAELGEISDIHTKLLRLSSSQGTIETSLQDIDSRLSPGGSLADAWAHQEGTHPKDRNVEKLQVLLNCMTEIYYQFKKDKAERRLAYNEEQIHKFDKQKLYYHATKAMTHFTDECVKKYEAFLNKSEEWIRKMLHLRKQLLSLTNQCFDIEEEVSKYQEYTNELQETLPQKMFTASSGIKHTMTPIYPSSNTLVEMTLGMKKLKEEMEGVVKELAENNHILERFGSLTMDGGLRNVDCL
Procedure, shortened: as §1

[1] = text bins, read-out: IC50 for inhibition of the kinase activity of IKKε
[2] = text bins, read-out: IC50 for inhibition of the kinase activity of TBK1

Row | SMILES | IC50 (IKKε; [1]) | IC50 (TBK1; [2]) | IC50 (IKKε; Table 3, read-out: IKKε IC50) | IC50 (TBK1; Table 3, read-out: TBK1 IC50)
1 | Cc1nnsc1C(=O)Nc1ccc(-c2ccnc(Nc3ccc(N4CCOCC4)cc3)n2)cc1C#N [Example 129, N-[2-cyano-4-(2-{[4-(morpholin-4-yl)phenyl]amino}pyrimidin-4-yl)phenyl]-4-methyl-1,2,3-thiadiazol-5-carboxamide] | < 5 nM | < 10 nM |  | 
2 | COc1ccc(Nc2nccc(-c3ccc(NC(C)=O)c(C#N)c3)n2)cc1OC [Example 136, N-(2-Cyano-4-{2-[(3,4-dimethoxyphenyl)amino]pyrimidin-4-yl}phenyl)acetamide] | 5 to 50 nM | 10 to 100 nM |  | 
3 | COc1cc(Nc2nccc(-c3ccc(OC)c(C#N)c3)n2)cc(OCCN2CCOCC2)c1 [Example 138, 2-Methoxy-5-[2-({3-methoxy-5-[2-(morpholin-4-yl)ethoxy]phenyl}amino)pyrimidin-4-yl]benzonitrile] | 5 to 50 nM | 10 to 100 nM |  | 
4 | CC(=O)NCCCOc1ccc(-c2ccnc(Nc3ccc(N4CCOCC4)cc3)n2)cc1C#N [Example 149, N-{3-[2-cyano-4-(2-{[4-(morpholin-4-yl)phenyl]amino}pyrimidin-4-yl)phenoxy]propyl} acetamide] | 5 to 50 nM | 10 to 100 nM |  | 
5 | C[C@H](O)C(=O)N1CCC(COc2ccc(-c3ccnc(Nc4ccc(N5CCOCC5)cc4)n3)cc2C#N)CC1 [Example 152, 2-({1-[(2S)-2-hydroxypropanoyl]piperidin-4-yl}methoxy)-5-(2-{[4-(morpholin-4-yl)phenyl]amino}pyrimidin-4-yl)benzonitrile] | 5 to 50 nM | 10 to 100 nM |  | 
6 | N#Cc1cc(-c2ccnc(Nc3ccc(N4CCOCC4)cc3)n2)ccc1OCC1CCOCC1 [Example 158, 5-(2-{[4-(morpholin-4-yl)phenyl]amino}pyrimidin-4-yl)-2-(tetrahydro-2H-pyran-4-ylmethoxy) benzonitrile] | < 5 nM | < 10 nM |  | 
7 | CC(C)(C)Oc1ccc(-c2ccnc(Nc3ccc(N4CCOCC4)cc3)n2)cc1C#N [Example 164, 2-tert-Butyoxy-5-(2-{[4-(morpholin-4-yl)phenyl]amino}pyrimidin-4-yl)benzonitrile] | < 5 nM | < 10 nM |  | 
8 | N#Cc1cc(-c2ccnc(Nc3ccc(N4CCOCC4)cc3)n2)ccc1OC1CCCCC1 [Example 165, 2-(Cyclohexyloxy)-5-(2-{[4-(morpholin-4-yl)phenyl]amino}pyrimidin-4-yl)benzonitrile] | < 5 nM | < 10 nM |  | 
9 | COc1ccc(Nc2nccc(-c3ccc(OC(C)(C)C)c(C#N)c3)n2)cc1OC [Example 169, 2-tert-Butoxy-5-{2-[(3,4-dimethoxyphenyl)amino]pyrimidin-4-yl}benzonitrile] | 5 to 50 nM | 10 to 100 nM |  | 
10 | COc1cc(C#N)cc(-c2ccnc(Nc3ccc(OC)c(OC)c3)n2)c1 [Example 172, 3-{2-[(3,4-Dimethoxyphenyl)amino]pyrimidin-4-yl}-5-methoxybenzonitrile] | 5 to 50 nM | 10 to 100 nM |  | 
11 | CS(=O)(=O)NCCOc1ccc(-c2ccnc(Nc3ccc(N4CCOCC4)cc3)n2)cc1C#N [Example 177, N-{2-[2-cyano-4-(2-{[4-(morpholin-4-yl)phenyl]amino}pyrimidin-4-yl)phenoxy]ethyl} methanesulfonamide] | 5 to 50 nM | 10 to 100 nM |  | 
12 | N#Cc1cc(-c2ccnc(Nc3ccc(N)cc3)n2)ccc1OC1CCOCC1 [Example 184, 5-{2-[(4-Aminophenyl)amino]pyrimidin-4-yl}-2-(tetrahydro-2H-pyran-4-yloxy)benzonitrile] | < 5 nM | < 10 nM |  | 
13 | COc1cc(Nc2nccc(-c3ccc(OC4CCNCC4)c(C#N)c3)n2)ccc1N1CCOCC1 [Example 186, 5-(2-{[3-methoxy-4-(morpholin-4-yl)phenyl]amino}pyrimidin-4-yl)-2-(piperidin-4-yloxy)benzonitrile] | 5 to 50 nM | 10 to 100 nM |  | 
14 | N#Cc1cc(-c2ccnc(Nc3ccc(N4CCOCC4)cc3)n2)ccc1OC1CCN(C=O)C1 (stereo not shown) [Example 187, 2-[(1-formylpyrrolidin-3-yl)oxy]-5-(2-{[4-(morpholin-4-yl)phenyl]amino}pyrimidin-4-yl)benzonitrile] | 5 to 50 nM | < 10 nM |  | 
15 | N#Cc1cc(-c2ccnc(Nc3ccc(N4CCOCC4)cc3)n2)ccc1OC1CCN(C(=O)C2(N)CC2)C1 (stereo not shown) [Example 189, 2-({1-[(1-aminocyclopropyl)carbonyl]pyrrolidin-3-yl}oxy)-5-(2-{[4-(morpholin-4-yl)phenyl]amino}pyrimidin-4-yl)benzonitrile] | 50 to 500 nM | 100 to 500 nM |  | 

Results, then the compound that gave them:

Row | IC50 (IKKε; [1]) | IC50 (TBK1; [2]) | IC50 (IKKε; Table 3, read-out: IKKε IC50) | IC50 (TBK1; Table 3, read-out: TBK1 IC50) | SMILES
16 | < 5 nM | < 10 nM |  |  | N#Cc1cc(-c2ccnc(Nc3ccc(N4CCOCC4)cc3)n2)ccc1O [Example 130, 2-Hydroxy-5-(2-{[4-(morpholin-4-yl)phenyl]amino}pyrimidin-4-yl)benzonitrile]
17 | < 5 nM | < 10 nM |  |  | COc1cc(Nc2nccc(-c3ccc(OC4CCN(C(C)=O)CC4)c(C#N)c3)n2)ccc1N1CCNC(=O)C1 [Example 134, 2-[(1-Acetylpiperidin-4-yl)oxy]-5-(2-{[3-methoxy-4-(3-oxopiperazin-1-yl)phenyl]amino}pyrimidin-4-yl)benzonitrile]
18 | 5 to 50 nM | < 10 nM |  |  | N#Cc1cc(-c2ccnc(Nc3ccc(N4CCOCC4)cc3)n2)ccc1OC1CNC1 [Example 143, 2-(azetidin-3-yloxy)-5-(2-{[4-(morpholin-4-yl)phenyl]amino}pyrimidin-4-yl)benzonitrile]
19 | < 5 nM | < 10 nM |  |  | COc1cc(Nc2nccc(-c3ccc(OC4CCOCC4)c(C#N)c3)n2)ccc1S(=O)(=O)NCCCO [Example 155, 4-({4-[3-cyano-4-(tetrahydro-2H-pyran-4-yloxy)phenyl]pyrimidin-2-yl}amino)-N-(3-hydroxypropyl)-2-methoxybenzene-sulfonamide]
20 | 5 to 50 nM | < 10 nM |  |  | N#Cc1cc(-c2ccnc(Nc3ccc(N4CCOCC4)cc3)n2)ccc1OCc1cccnc1 [Example 168, 5-(2-{[4-(Morpholin-4-yl)phenyl]amino}pyrimidin-4-yl)-2-(pyridin-3-ylmethoxy) benzonitrile]
21 | < 5 nM | < 10 nM |  |  | CS(=O)(=O)N1CCC(Nc2ccc(Nc3nccc(-c4ccc(OC5CCOCC5)c(C#N)c4)n3)cc2)CC1 [Example 171, 5-{2-[(4-{[1-(methylsulfonyl)piperidin-4-yl]amino}phenyl)amino]pyrimidin-4-yl}-2-(tetrahydro-2H-pyran-4-yloxy)benzonitrile]
22 | 5 to 50 nM | 10 to 100 nM |  |  | N#Cc1cc(-c2ccnc(Nc3ccc(N4CCOCC4)cc3)n2)ccc1OCc1ccccc1 [Example 179, 2-(Benzyloxy)-5-(2-{[4-(morpholin-4-yl)phenyl]amino}pyrimidin-4-yl)benzonitrile]
23 | < 5 nM | < 10 nM |  |  | N#Cc1cc(-c2ccnc(Nc3ccc(N4CCOCC4)cc3)n2)ccc1OCCCNC(=O)CO [Example 181, N-{3-[2-cyano-4-(2-{[4-(morpholin-4-yl)phenyl]amino}pyrimidin-4-yl)phenoxy]propyl}-2-hydroxyacetamide]
24 | 50 to 500 nM | 10 to 100 nM |  |  | CN(C)CC(=O)Nc1ccc(Nc2nccc(-c3cccc(C#N)c3)n2)cc1 [Example 183]
25 | < 5 nM | < 10 nM | 0.4 nM | 0.3 nM | N#Cc1cc(-c2ccnc(Nc3ccc(N4CCOCC4)cc3)n2)ccc1OC1CCN(C(=O)CO)CC1 [Example 190, 2-{[1-(Hydroxyacetyl)piperidin-4-yl]oxy}-5-(2-{[4-(morpholin-4-yl)phenyl]amino}pyrimidin-4-yl)benzonitrile]
